Test results as given in US5578725A, “Delta opioid receptor antagonists” (priority 1995, dated 1996).

Columns and labels:
[1] = tested on: rats; details: compared to peptidyl delta-opioid receptor antagonists; Ser. No. 07/750,109; cited from earlier work
[2] = target: δ1 (Mus musculus, UniProt P32300); details: mouse, in vivo
[3] = target: μ (Cavia porcellus, UniProt A0ACM8Q262); details: data from Portoghese et al.; cited from earlier work
[4] = K. Arakawa et al.; cited from earlier work
[5] = target: δ opioid receptors (Mus musculus, UniProt P32300); set-up: mouse vas deferens (MVD) preparations; from tissue; host or cells: mouse vas deferens, electrically stimulated; details: MVD, DADLE; data from Korlipara et al.; 15 min; read-out: Ke; cited from earlier work
Sequence of δ opioid receptors (P32300 whole entry): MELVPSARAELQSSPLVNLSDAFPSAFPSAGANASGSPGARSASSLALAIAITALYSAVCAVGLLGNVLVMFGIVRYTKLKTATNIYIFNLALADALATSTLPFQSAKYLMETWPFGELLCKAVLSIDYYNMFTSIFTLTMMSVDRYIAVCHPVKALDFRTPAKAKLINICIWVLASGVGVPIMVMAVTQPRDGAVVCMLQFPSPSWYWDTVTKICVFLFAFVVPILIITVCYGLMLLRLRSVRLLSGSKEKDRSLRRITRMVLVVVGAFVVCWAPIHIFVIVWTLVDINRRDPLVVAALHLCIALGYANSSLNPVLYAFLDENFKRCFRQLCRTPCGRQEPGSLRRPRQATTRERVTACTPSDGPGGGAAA

Sequence of δ1 (P32300 whole entry): as above
Sequence of μ (A0ACM8Q262 1-400): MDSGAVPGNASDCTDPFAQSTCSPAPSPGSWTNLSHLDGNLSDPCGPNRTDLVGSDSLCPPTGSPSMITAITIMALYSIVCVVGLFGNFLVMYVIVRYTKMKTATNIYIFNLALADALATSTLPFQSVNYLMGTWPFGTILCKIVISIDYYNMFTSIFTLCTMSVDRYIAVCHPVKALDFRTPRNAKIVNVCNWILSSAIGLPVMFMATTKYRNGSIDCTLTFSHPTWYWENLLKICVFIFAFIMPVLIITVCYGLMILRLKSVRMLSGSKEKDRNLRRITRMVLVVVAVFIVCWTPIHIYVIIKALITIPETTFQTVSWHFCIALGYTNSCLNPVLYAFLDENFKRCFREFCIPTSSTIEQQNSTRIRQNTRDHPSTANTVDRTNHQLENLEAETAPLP

Oc1ccc2c3c1O[C@H]1c4[nH]c5ccccc5c4C[C@@]4(O)[C@@H](C2)N(CC2CC2)CC[C@]314 [Compound 1, naltrindole]
suppression of ethanol drinking (in words) [1]: unexpectedly prolonged suppression of ethanol drinking | Dose required to double the ED50 of DPDPE, i.c.v. [2]: 0.3 nmol/kg | Dose required to double the ED50 of DPDPE, i.v. ([2]; iv): 2.19 µmol/kg | penetration into the CNS (in words) ([2]; iv): penetrates the CNS more readily than the conjugates | Ki [3]: 3.8 nM | immunosuppressive activity (in words) [4]: potent immunosuppressive activity | Kb [5]: 0.2 nM
